Results from paper PMC6068598 (ACS Omega, 2018).
Each block holds one compound with its values, some of them ahead of it.

Legend:
hTau-441 fibrils = hTau-441 fibrils (Homo sapiens, UniProt P10636); assay: Inhibition of [3H]astemizole binding to synthetic hTau-441 fibrils
monoamino oxidase B = conditions: no reference given; cited from earlier work
[1] = First-in-man PET brain uptake in healthy volunteers; conditions: for peak uptake, whole brain: initial perfusion phase, 1 min p.i., i.v. bolus, healthy volunteers
[2] = imidazolyl sulfoxide moiety; cited from earlier work
monoamino oxidase A = conditions: cited from earlier work

Sequence of hTau-441 fibrils (P10636 1-441 isoform P10636-8): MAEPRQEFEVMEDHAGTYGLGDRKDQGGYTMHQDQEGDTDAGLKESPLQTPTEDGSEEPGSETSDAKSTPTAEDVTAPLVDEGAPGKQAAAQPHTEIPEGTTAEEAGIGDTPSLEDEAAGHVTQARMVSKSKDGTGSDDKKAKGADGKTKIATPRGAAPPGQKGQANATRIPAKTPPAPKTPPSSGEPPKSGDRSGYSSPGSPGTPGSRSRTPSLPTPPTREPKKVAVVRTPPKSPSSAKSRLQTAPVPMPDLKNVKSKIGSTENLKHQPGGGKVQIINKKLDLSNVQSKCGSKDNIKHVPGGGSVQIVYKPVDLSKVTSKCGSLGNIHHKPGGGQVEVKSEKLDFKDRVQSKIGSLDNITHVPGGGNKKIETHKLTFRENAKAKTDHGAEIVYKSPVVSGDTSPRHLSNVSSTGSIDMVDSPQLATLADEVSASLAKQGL

SMILES: Cc1c(OCCF)ccnc1C[S+]([O-])c1nc2ccccc2n1C (centres unmarked) [11t, 2-(((4-(2-Fluoroethoxy)-3-methylpyridin-2-yl)methyl)sulfinyl)-1-methyl-1H-benzoimidazole]
htau fibril binding result (hTau-441 fibrils): very high affinity

SMILES: CNc1ccc(-c2ccc3cc(OC[C@H](O)C[18F])ccc3n2)cn1 [[^18F]THK-5351]
affinity for monoamino oxidase B (monoamino oxidase B): high affinity

SMILES: [18F]c1ccc(-c2ccc3c(c2)[nH]c2ccncc23)cn1 [[^18F]T807]
affinity to monoamino oxidase A (monoamino oxidase A): high affinity

Now from value to compound, other results behind:

radioactivity concentration in brain at 10 min ([1]; 10 min): about 3.0 % of the injected dose
radioactivity concentration in brain at 27 min ([1]; 27 min): ~2.0 % of the injected dose
radioactivity concentration in brain at 90 min ([1]; 90 min): ~1.3 % of the injected dose
peak uptake, whole brain [1]: 5.0–6.0 % i.D.
SMILES: Cc1c(OCC(F)(F)[18F])ccnc1C[S+]([O-])c1nc2ccccc2n1C (centres unmarked) [[^18F]2]

whole brain activity at 2 min p.i. ([1]; 2 min p.i.): less than 1.0 % i.D.
whole brain activity after 90 min ([1]; after 90 min): below 0.5%
peak uptake, whole brain [1]: 2.5–3.5 % i.D.
SMILES: Cc1c(OCC(F)(F)[18F])ccnc1C[S+]([O-])c1nc2ccccc2[nH]1 (centres unmarked) [[^18F]1, [^18F]lansoprazole]
pKa (N–H-acidity) [2]: ~4
